Test results published in patent publication US20080312169A1, “Cosmetic use of D-ribose” (priority 2007, published 2008).

Tests used:
[1] = system: normal human dermal fibroblasts (NHDF); experiment: Oxygen consumption (mitochondrial and cytoplasmic respiration) of NHDF in culture, BD Oxygen Biosensor System; type: cell-based; settings: 0.05% D-ribose, two hours of contact, six wells
Procedure: The inventors measured the effect of D-ribose on mitochondrial and cytoplasmic respiration of normal human dermal fibroblasts (NHDF) in culture. The cells were cultivated at 37° C. under an atmosphere of 5% CO2, in a culture solution of DMEM supplemented with 10% bovine fetal serum. […] Thus, D-ribose augments the consumption of oxygen in the cells, and consequently, the metabolism of cutaneous cells and tissues.

NHDF = experiment: ATP production by NHDF in culture under conditions of hypoxia; type: cell-based, human; settings: 0.05% D-ribose, 24 h pretreatment, after six hours of severe hypoxia (oxygen<2%)
Procedure: The inventors have measured the effect of D-ribose on the production of ATP by NHDF in culture, under conditions of hypoxia. The cells used were cultivated in flasks of normal human epidermal cells (NHDF) in a medium of DMEM with 10% fetal bovine serum, incubated at 37° C. in an atmosphere of 5% CO2, and 95% air until 80% confluent. On Day 1, a first measure of the level of ATP was determined on the non-treated, non-stressed NHDF. Two sets of six duplicates were 15 pretreated for 24 hours with 0.05% ribose or not treated as control. At Day 2, before the induction of hypoxia, one set of treated and control cells was harvested to measure the level of ATP. The cells of the second set were suspended, the medium renewed with DMEM with 10% fetal bovine serum with HEPES buffer in order to maintain the pH within physiological conditions during hypoxia and with EDTA in order to prevent the agglutination of the cells. The cells were held in an incubator held at 37° C., in which the atmosphere had been previously replaced by nitrogen. The cells were incubated for six hours in a condition of severe hypoxia (oxygen<2%) in the presence of 0.05% D-ribose versus the non-treated control. Recovery of the cells and measurement of the ATP was followed in the treated and control cells. […]

O=C[C@H](O)[C@H](O)[C@H](O)CO [D-ribose] was tested, and the “augmentation of cytoplasmic respiration over control” value [1] was 37%, the “augmentation of mitochondrial respiration over control” value [1] was 31% and the “recovery of the ATP levels, of the base levels” value (NHDF) was “about 19%”.
